In patent publication US20200368175A1, “METHODS AND DEVICES FOR TREATING LEVODOPA INDUCED DYSKINESIA” (CHRONO THERAPEUTICS INC., priority 2017, published 2020):
Like-named read-outs stand apart in the source and are kept apart here.

Experiments:
clinical = assay: clinical
Method: The graph is based on the oral nicotine administration protocol administering a 6 mg nicotine tablet every 6 hours, as described in International Patent Publication No. WO 2013/006643, the entirety of which is incorporated by reference herein.
To obtain the graph shown in FIG. 2, the plasma concentration-time profile of oral nicotine was simulated using the pharmacokinetic equation (equation 1) for multiple-dose oral administration: […]
where F is oral bioavailability. D is oral dose, ka is absorption rate constant. Vd is volume of distribution, ke is elimination rate constant, s is dose interval, n is the number of dose, and C is the plasma concentration at any time ‘t’.
The pharmacokinetic parameters F, D, and T were obtained from Hukkanen, J. et al. Pharmacol Rev. 2005 March; 57(1):79-115 and U.S. Patent Publication No. 20130017259A1. Further, the pharmacokinetic parameter absorption rate constant (ka) shown in the above table was obtained by fitting the orally administered nicotine PK data (obtained from Benowitz, N. L. et al. Clin Pharmacol Ther. 1991 March; 49(3):270-7) to a two-compartmental pharmacokinetic model (shown in FIG. 4). Pharmacokinetic parameters Vd (volume of distribution) and ke (elimination rate constant) were obtained by fitting intravenously administered nicotine PK data (obtained from Benowitz, N. L. et al. Clin Pharmacol Ther. 1991 March; 49(3):270-7) to the two-compartmental model shown in FIG. 4 without the absorption component and lag component.

[1] = transdermal delivery device, clinical PK data fitted to two-compartmental model with lag compartment
Description: To obtain the graphs shown in FIGS. 5-7, the plasma concentration-time profile of nicotine administered transdermally was simulated by means of a two compartmental model, as shown in FIG. 4. In addition to the two compartments (Central and peripheral), the lag compartment was included to take absorption lag into account associated with transdermal delivery.

[2] = amnestic MCI subjects, six months, cited from earlier work
[3] = oral nicotine, human; from Hukkanen et al. and US 20130017259A1; cited from earlier work

Which results are given for `CN1CCCC1c1cccnc1` (stereo not drawn) [nicotine]?
Vd (clinical; human, plasma, iv): 76 L; ke (elimination rate constant), average value (clinical; intravenous nicotine PK data of Benowitz et al. fitted to two-compartmental model without absorption and lag components): 0.9 h⁻¹; ka (absorption rate constant), average value (clinical; oral nicotine PK data of Benowitz et al. fitted to two-compartmental model): 2.5 h⁻¹; Vd (volume of distribution), average value [1]: 59 L; ka (absorption rate constant), average value [1]: 0.29 h⁻¹; ke (elimination rate constant), average value [1]: 2.15 h⁻¹; effect on attention, memory and psychomotor speed ([2]; 15 mg per day transdermal nicotine vs placebo): significant nicotine-associated improvements in attention, memory, and psychomotor speed; safety and tolerability ([2]; 15 mg per day transdermal nicotine): excellent safety and tolerability; F (oral bioavailability), average value [3]: 0.32
